Data reported in US20080113347A1, “Method for the in Vitro Diagnosis and Prognosis of Demyelinating Diseases, and for the Development of Drugs Against Demyelinating Diseases” (priority 2003, published 2008).

Tested on: dusp6 gene expression
Experiment: Differential analysis of dusp6 gene expression in oligodendrocyte cultures with Rat Genome U34 DNA arrays
Type: cell-based
Design: key to Change: Increases (I); Decreases (D); undergoes No Change (NC); Marginally Increases (MI); Marginally Decreases (MD); key to Detection: Present (P); Absent (A); Marginal (M)
Conditions: for SLR (vs control): Signal Log Ratio (log2); for Signal (dusp6, probe set U42627_at): arrays scaled to total intensity 100; for Change: vs control
Description: Microarrays. The microarrays GeneChip Test 3 (Affymetrix, Santa Clara) were used which allow testing the quality of the RNA prior to the expression analysis with GeneChip Rat Genome U34 set (Affymetrix, Santa Clara), representing 3322 complete gene sequences. The dusp6 gene is represented in the microarray by probe set U42627_at of Affymetrix, which are sense oligonucleotides of 25 nucleotides in length designed on the basis of GeneBank U42627 sequence (Table 1).
Samples. The samples studied corresponded to primary oligodendrocyte cultures obtained from the optic nerve of 12-day old rats. To prevent inter-individual variations, each culture corresponded to a 10-animal cell pool. Treatments were made in duplicate with 10 μM AMPA (α-amino-3-hydroxy-5-methyl-4-isoxazolepropionic acid) or 3 μM kainate. The duration of treatments was 2, 10 and 15 minutes, the cells being collected immediately after treatment in the first two cases and 1 hour after the 15-minute treatment. Treatment for 10 and 15 minutes with AMPA and with kainate causes apoptosis, whereas 2-minute treatment was considered sublethal due to scarce treatment duration. After treatments, the cells were collected in TRIzol® Reagent (Life Technologies) and were stored at −80° C. until total RNA extraction.
The analysis was carried out with total RNA from oligodendrocyte cultures. Each sample corresponded to the mixture of total RNAs from two cultures and were called the following: control: untreated cultured oligodendrocytes ampa 2: oligodendrocytes treated for 2 minutes with 10 μM AMPA and collected after treatment ampa 10: oligodendrocytes treated for 10 minutes with 10 μM AMPA collected after treatment ampa 15: oligodendrocytes treated for 15 minutes with 10 μM AMPA and collected 60 minutes later Kainate 2: oligodendrocytes treated for 2 minutes with 3 μM kainate and collected after treatment Kainate 10: oligodendrocytes treated for 10 minutes with 3 μM kainate and collected after treatment Kainate 15: oligodendrocytes treated for 15 minutes with 3 μM kainate and collected 60 minutes later The total RNA of each one of the cultures was obtained by homogenizing the cells in TRIzol® Reagent (Life Technologies) following the supplier's recommendations. The resulting total RNA was cleaned with the RNeasy Mini kit (QIAGEN) (Chomczynski P. et al., Anal. Biochem., 1987, 162: 156; Chomczynski P., Biotechniques, 1993, 15: 532). 2 μg from each total RNA preparation were used as starting material for the synthesis of biotinylated cRNA with the MessageAmp™ aRNA kit (Ambion).
15 μg of each biotinylated cRNA were fragmented at 94° C. for 35 minutes in a buffer solution containing 40 mM Tris-Acetate (pH 8.1), 100 mM KOAc and 30 mM MgOAc. The fragmented cRNA was mixed with hybridization buffer (10 mM MES, 1M NaCl, 20 mM EDTA, 0.01% Tween 20) and was heated at 99° C. for 5 minutes and subsequently at 45° C. for 5 minutes, to then be loaded into the Affymetrix array. The first array in which hybridization was carried out was Affymetrix Test 3. This array allows testing the quality of the RNA prior to expression analysis in the Affymetrix® GeneChip® Rat Genome U34 set (RG-U34).
For hybridization, the arrays were incubated in a rotary oven at 45° C. for 16 hours and with a constant rotation of 60 rpm.
Washing and staining of each array was carried out in the Affymetrix® Fluidics Station. A washing and staining program was used which included:
The arrays were scanned at 560 nm using a confocal microscope using laser emission (Agilent GeneArray Scanner). Analysis of the intensity readings was carried out with Microarray Suite 5.0 software. To compare the arrays, the latter were scaled to a total intensity of 100.
Differential analysis of the dusp6 gene expression in the oligodendrocytes stimulated with regard to the control was carried out from the array comparison data obtained using the Affymetrix software. […]

[1] = treated 2 minutes (10 μM AMPA or 3 μM kainate), collected after treatment
[2] = treated 10 minutes (10 μM AMPA or 3 μM kainate), collected after treatment
[3] = treated 15 minutes (10 μM AMPA or 3 μM kainate), collected 60 minutes later

Question: Which “SLR (vs control)” value [1] does the source give for `Cc1onc(O)c1CC(N)C(=O)O` (stereo not drawn) [AMPA, α-amino-3-hydroxy-5-methyl-4-isoxazolepropionic acid] here?
Answer: 0.8

Question: What about the “SLR (vs control)” value [2] of the same compound?
Answer: 1.2

Question: And the “SLR (vs control)” value [3]?
Answer: 2.1

Question: What about the “Ratio (=2^SLR)” value (fold change vs untreated control, treated 2 minutes (10 μM AMPA or 3 μM kainate), collected after treatment) of the same compound?
Answer: 1.7 fold

Question: And the Detection [1]?
Answer: P

Question: What about the “Signal (dusp6, probe set U42627_at)” value [1] of the same compound?
Answer: 75.3

Question: What about the Detection [2] of the same compound?
Answer: P

Question: And the “Signal (dusp6, probe set U42627_at)” value [2]?
Answer: 101.7

Question: And the Detection [3]?
Answer: P

Question: And the “Signal (dusp6, probe set U42627_at)” value [3]?
Answer: 149.7

Question: And the Change [1]?
Answer: I

Question: What about the Change [2] of the same compound?
Answer: I

Question: What about the Change [3] of the same compound?
Answer: I
